What all share (type): functional
In assay [1] the test system is Penicillium chrysogenum. Kind of assay: Antifungal activity against Penicillium chrysogenum MTCC 161 at 10 ug/ml after 48 hr by cup-plate method. The conditions noted are these: MTCC 161, 48 h, read-out: DIZ.
In assay [2] the test system is Aspergillus niger. Kind of assay: Antifungal activity against Aspergillus niger MTCC 2546 at 10 ug/ml after 48 hr by cup-plate method. Conditions: MTCC 2546, 48 h, read-out: DIZ.
Assay [3] relates to Escherichia coli. Kind of assay: Antibacterial activity against Escherichia coli MTCC 1573 at 10 ug/ml after 48 hr by cup-plate method. Conditions: MTCC 1573, 48 h, read-out: DIZ.
Assay [4] concerns Bacillus subtilis. The experiment in a line: Antibacterial activity against Bacillus subtilis MTCC 441 at 10 ug/ml after 48 hr by cup-plate method. Conditions: MTCC 441, 48 h, read-out: DIZ.
The test system of assay [5] is Bacillus pumilus. The experiment in a line: Antibacterial activity against Bacillus pumilus MTCC 1456 at 10 ug/ml after 48 hr by cup-plate method. The conditions noted are these: MTCC 1456, 48 h, read-out: DIZ.
The test system of assay [6] is Staphylococcus aureus. The experiment in a line: Antibacterial activity against Staphylococcus aureus MTCC 1430 at 10 ug/ml after 48 hr by cup-plate method. The conditions noted are these: MTCC 1430, 48 h, read-out: DIZ.
Assay [7] deals with Pseudomonas fluorescens. The experiment in a line: Antibacterial activity against Pseudomonas fluorescens MTCC 2421 at 10 ug/ml after 48 hr by cup-plate method. The conditions noted are these: MTCC 2421, 48 h, read-out: DIZ.
Assay [8] has as its system Micrococcus luteus. The experiment in a line: Antibacterial activity against Micrococcus luteus MTCC 1538 at 10 ug/ml after 48 hr by cup-plate method. The conditions noted are these: MTCC 1538, 48 h, read-out: DIZ.
The test system of assay [9] is Pseudomonas aeruginosa. The experiment in a line: Antibacterial activity against Pseudomonas aeruginosa MTCC 424 at 10 ug/ml after 48 hr by cup-plate method. The conditions noted are these: MTCC 424, 48 h, read-out: DIZ.

In the case of `OC(Cn1cncn1)(Cn1cncn1)c1ccc(F)cc1F` [FLUCONAZOLE], the zone of inhibition at 10 µg/mL came to 25 mm in assay [1] and 24 mm in assay [2].
For the compound `CCn1cc(C(=O)O)c(=O)c2cc(F)c(N3CCNCC3)cc21` [NORFLOXACIN], the zone of inhibition at 10 µg/mL in assay [3] turned out to be 27 mm; in [4] it was 25 mm; in assay [5], 27 mm; in [6], 28 mm; in [7], 27 mm; in assay [8], 32 mm. Also, the zone of inhibition at 10 µg/mL in assay [9] is 24 mm.

Values taken from ChEMBL document CHEMBL3044945, “Synthesis of 1,3,5-trisubstituted pyrazoline nucleus containing compounds and screening for antimicrobial activity” (2012).
